Experimental data taken from PubChem BioAssay (NCI).
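Dose response: 5 concentrations. Exposure: 48 h. Format: 96-well plates. Endpoint: linear interpolation; highest concentration if not reached. TGI is the concentration that stops growth completely.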

Tests used:
Assay in all cases: DTP human tumour cell line panel, 48 h
786-0 renal = test system: 786-0 renal
A549 NSCLC = test system: A549 NSCLC
ACHN renal = test system: ACHN renal
BT-549 breast = test system: BT-549 breast
CAKI-1 renal = test system: CAKI-1 renal
CCRF-CEM leukemia = test system: CCRF-CEM leukemia
COLO 205 colon = test system: COLO 205 colon
DU-145 prostate = test system: DU-145 prostate
EKVX NSCLC = test system: EKVX NSCLC
HCC-2998 colon = test system: HCC-2998 colon
HCT-116 colon = test system: HCT-116 colon
HCT-15 colon = test system: HCT-15 colon
HL-60(TB) leukemia = test system: HL-60(TB) leukemia
HOP-62 NSCLC = test system: HOP-62 NSCLC
HOP-92 NSCLC = test system: HOP-92 NSCLC
HS 578T breast = test system: HS 578T breast
HT29 colon = test system: HT29 colon
IGROV1 ovarian = test system: IGROV1 ovarian
K-562 leukemia = test system: K-562 leukemia
KM12 colon = test system: KM12 colon
LOX IMVI melanoma = test system: LOX IMVI melanoma
M14 melanoma = test system: M14 melanoma
MALME-3M melanoma = test system: MALME-3M melanoma
MCF7 breast = test system: MCF7 breast
MDA-MB-231 breast = test system: MDA-MB-231 breast
MDA-MB-435 = test system: MDA-MB-435
MDA-N = test system: MDA-N
MOLT-4 leukemia = test system: MOLT-4 leukemia
NCI-H226 lung = test system: NCI-H226 lung
NCI-H23 lung = test system: NCI-H23 lung
NCI-H522 lung = test system: NCI-H522 lung
NCI/ADR-RES ovarian = test system: NCI/ADR-RES ovarian
OVCAR-3 ovarian = test system: OVCAR-3 ovarian
OVCAR-4 ovarian = test system: OVCAR-4 ovarian
OVCAR-5 ovarian = test system: OVCAR-5 ovarian
OVCAR-8 ovarian = test system: OVCAR-8 ovarian
PC-3 prostate = test system: PC-3 prostate
RPMI-8226 leukemia = test system: RPMI-8226 leukemia
RXF 393 renal = test system: RXF 393 renal
SF-268 CNS = test system: SF-268 CNS
SF-295 CNS = test system: SF-295 CNS
SF-539 CNS = test system: SF-539 CNS
SK-MEL-2 melanoma = test system: SK-MEL-2 melanoma
SK-MEL-28 melanoma = test system: SK-MEL-28 melanoma
SK-MEL-5 melanoma = test system: SK-MEL-5 melanoma
SK-OV-3 ovarian = test system: SK-OV-3 ovarian
SN12C renal = test system: SN12C renal
SNB-19 CNS = test system: SNB-19 CNS
SNB-75 CNS = test system: SNB-75 CNS
SR leukemia = test system: SR leukemia
SW-620 colon = test system: SW-620 colon
T-47D breast = test system: T-47D breast
TK-10 renal = test system: TK-10 renal
U251 CNS = test system: U251 CNS
UACC-257 melanoma = test system: UACC-257 melanoma
UACC-62 melanoma = test system: UACC-62 melanoma
UO-31 renal = test system: UO-31 renal
A498 renal = test system: A498 renal
NCI-H460 lung = test system: NCI-H460 lung

CC(C)COP(=O)(OCC(C)C)C(NS(=O)(=O)c1ccccc1)(C(F)(F)F)C(F)(F)F
TGI (786-0 renal): 25.7 µM
TGI (A549 NSCLC): 14.4 µM
TGI (ACHN renal): 10.2 µM
TGI (BT-549 breast): 19.6 µM
TGI (CAKI-1 renal): 18.6 µM
TGI (CCRF-CEM leukemia): 36.6 µM
TGI (COLO 205 colon): 3.94 µM
TGI (DU-145 prostate): 29.8 µM
TGI (EKVX NSCLC): 19 µM
TGI (HCC-2998 colon): 18.5 µM
TGI (HCT-116 colon): 21.7 µM
TGI (HCT-15 colon): 23.8 µM
TGI (HL-60(TB) leukemia): 4.13 µM
TGI (HOP-62 NSCLC): 35.1 µM
TGI (HOP-92 NSCLC): 7.64 µM
TGI (HS 578T breast): 97.9 µM
TGI (HT29 colon): 25.4 µM
TGI (IGROV1 ovarian): 16.8 µM
TGI (K-562 leukemia): > 100 µM
TGI (KM12 colon): 14.4 µM
TGI (LOX IMVI melanoma): 13.6 µM
TGI (M14 melanoma): 43.2 µM
TGI (MALME-3M melanoma): 32.4 µM
TGI (MCF7 breast): > 100 µM
TGI (MDA-MB-231 breast): 5.56 µM
TGI (MDA-MB-435): 22.3 µM
TGI (MDA-N): 20.6 µM
TGI (MOLT-4 leukemia): 14.9 µM
TGI (NCI-H226 lung): 39.9 µM
TGI (NCI-H23 lung): 14.2 µM
TGI (NCI-H522 lung): 17.4 µM
TGI (NCI/ADR-RES ovarian): 23.6 µM
TGI (OVCAR-3 ovarian): 23.8 µM
TGI (OVCAR-4 ovarian): 13.5 µM
TGI (OVCAR-5 ovarian): 38.1 µM
TGI (OVCAR-8 ovarian): 25.5 µM
TGI (PC-3 prostate): 31.7 µM
TGI (RPMI-8226 leukemia): 6.46 µM
TGI (RXF 393 renal): 21.1 µM
TGI (SF-268 CNS): 34.7 µM
TGI (SF-295 CNS): 37 µM
TGI (SF-539 CNS): 29.1 µM
TGI (SK-MEL-2 melanoma): 14.3 µM
TGI (SK-MEL-28 melanoma): 37.1 µM
TGI (SK-MEL-5 melanoma): 33 µM
TGI (SK-OV-3 ovarian): 29.9 µM
TGI (SN12C renal): 18.8 µM
TGI (SNB-19 CNS): 54.1 µM
TGI (SNB-75 CNS): 12.6 µM
TGI (SR leukemia): 38.1 µM
TGI (SW-620 colon): 41.6 µM
TGI (T-47D breast): 9.34 µM
TGI (TK-10 renal): 15.6 µM
TGI (U251 CNS): 17.3 µM
TGI (UACC-257 melanoma): 17.5 µM
TGI (UACC-62 melanoma): 19.1 µM
TGI (UO-31 renal): 7.4 µM

COc1ccc(C(OCC2OC(n3cc(C)c(=O)[nH]c3=O)CC2n2cc(Cn3cc(F)c(=O)[nH]c3=O)nn2)(c2ccccc2)c2ccccc2)cc1 (stereo not given)
TGI (786-0 renal): 21.7 µM
TGI (A498 renal): 28.6 µM
TGI (A549 NSCLC): > 100 µM
TGI (ACHN renal): 27.2 µM
TGI (BT-549 breast): 28.8 µM
TGI (CAKI-1 renal): 25 µM
TGI (CCRF-CEM leukemia): 9.85 µM
TGI (COLO 205 colon): 27 µM
TGI (DU-145 prostate): 27.1 µM
TGI (EKVX NSCLC): 23.3 µM
TGI (HCC-2998 colon): 15.1 µM
TGI (HCT-116 colon): 13.2 µM
TGI (HCT-15 colon): 23.3 µM
TGI (HL-60(TB) leukemia): 5.83 µM
TGI (HOP-62 NSCLC): 25.7 µM
TGI (HOP-92 NSCLC): 19.5 µM
TGI (HS 578T breast): > 100 µM
TGI (HT29 colon): > 100 µM
TGI (IGROV1 ovarian): 36.4 µM
TGI (KM12 colon): 14.3 µM
TGI (LOX IMVI melanoma): > 100 µM
TGI (M14 melanoma): 27.9 µM
TGI (MALME-3M melanoma): 31.8 µM
TGI (MCF7 breast): 34.7 µM
TGI (MDA-MB-231 breast): 7.7 µM
TGI (MDA-MB-435): 3.94 µM
TGI (MDA-N): 3.53 µM
TGI (MOLT-4 leukemia): 18.6 µM
TGI (NCI-H226 lung): 36.7 µM
TGI (NCI-H23 lung): 27.9 µM
TGI (NCI-H522 lung): 21.5 µM
TGI (NCI/ADR-RES ovarian): > 100 µM
TGI (OVCAR-3 ovarian): 19.6 µM
TGI (OVCAR-4 ovarian): 47.3 µM
TGI (OVCAR-5 ovarian): 35.5 µM
TGI (OVCAR-8 ovarian): > 100 µM
TGI (PC-3 prostate): 31.3 µM
TGI (RPMI-8226 leukemia): 8.93 µM
TGI (RXF 393 renal): 49.6 µM
TGI (SF-268 CNS): 35 µM
TGI (SF-295 CNS): 19.4 µM
TGI (SF-539 CNS): 23.9 µM
TGI (SK-MEL-2 melanoma): 24.8 µM
TGI (SK-MEL-28 melanoma): 24.9 µM
TGI (SK-MEL-5 melanoma): 30.1 µM
TGI (SK-OV-3 ovarian): 22.9 µM
TGI (SN12C renal): 22.8 µM
TGI (SNB-19 CNS): 22.8 µM
TGI (SNB-75 CNS): 42.5 µM
TGI (SR leukemia): 8.84 µM
TGI (SW-620 colon): 21.4 µM
TGI (T-47D breast): 24.4 µM
TGI (TK-10 renal): 33.9 µM
TGI (U251 CNS): 21.2 µM
TGI (UACC-257 melanoma): 28 µM
TGI (UACC-62 melanoma): 29.2 µM
TGI (UO-31 renal): 23.6 µM

CC(O)C1CC1(CO)CNc1cc(Cl)nc(N)n1 (stereo not given)
TGI (786-0 renal): > 100 µM
TGI (A549 NSCLC): > 100 µM
TGI (ACHN renal): > 100 µM
TGI (BT-549 breast): > 100 µM
TGI (CAKI-1 renal): > 100 µM
TGI (CCRF-CEM leukemia): > 100 µM
TGI (COLO 205 colon): > 100 µM
TGI (DU-145 prostate): > 100 µM
TGI (EKVX NSCLC): > 100 µM
TGI (HCC-2998 colon): > 100 µM
TGI (HCT-116 colon): > 100 µM
TGI (HCT-15 colon): > 100 µM
TGI (HL-60(TB) leukemia): > 100 µM
TGI (HOP-62 NSCLC): > 100 µM
TGI (HOP-92 NSCLC): > 100 µM
TGI (HS 578T breast): > 100 µM
TGI (HT29 colon): > 100 µM
TGI (IGROV1 ovarian): > 100 µM
TGI (K-562 leukemia): > 100 µM
TGI (KM12 colon): > 100 µM
TGI (LOX IMVI melanoma): > 100 µM
TGI (MALME-3M melanoma): > 100 µM
TGI (MCF7 breast): > 100 µM
TGI (MDA-MB-231 breast): > 100 µM
TGI (MDA-MB-435): > 100 µM
TGI (MDA-N): > 100 µM
TGI (MOLT-4 leukemia): > 100 µM
TGI (NCI-H226 lung): > 100 µM
TGI (NCI-H23 lung): > 100 µM
TGI (NCI-H460 lung): > 100 µM
TGI (NCI-H522 lung): > 100 µM
TGI (NCI/ADR-RES ovarian): > 100 µM
TGI (OVCAR-3 ovarian): > 100 µM
TGI (OVCAR-4 ovarian): > 100 µM
TGI (OVCAR-5 ovarian): > 100 µM
TGI (OVCAR-8 ovarian): > 100 µM
TGI (PC-3 prostate): > 100 µM
TGI (RPMI-8226 leukemia): > 100 µM
TGI (RXF 393 renal): > 100 µM
TGI (SF-268 CNS): > 100 µM
TGI (SF-295 CNS): > 100 µM
TGI (SF-539 CNS): > 100 µM
TGI (SK-MEL-2 melanoma): > 100 µM
TGI (SK-MEL-28 melanoma): > 100 µM
TGI (SK-MEL-5 melanoma): > 100 µM
TGI (SK-OV-3 ovarian): > 100 µM
TGI (SN12C renal): > 100 µM
TGI (SNB-19 CNS): > 100 µM
TGI (SNB-75 CNS): > 100 µM
TGI (SR leukemia): > 100 µM
TGI (SW-620 colon): > 100 µM
TGI (T-47D breast): > 100 µM
TGI (TK-10 renal): > 100 µM
TGI (U251 CNS): > 100 µM
TGI (UACC-257 melanoma): > 100 µM
TGI (UO-31 renal): > 100 µM
